From ChEMBL document CHEMBL3714767, “Imidazothiadiazole and imidazopyridazine derivatives as protease activated receptor 4 (PAR4) inhibitors for treating platelet aggregation” (2013)
The source made the active and inactive calls. The calls are words filed in the database; no cut-off is given here. Where a SMILES comes first, the peptide text is derived from it. [ ]: non-standard residue; d: D form. The star is where a group is joined. Phe(4-guanidino) = N=C(N)Nc1ccc(C[C@H](N)C(=O)O)cc1; Phe(4-F) = N[C@@H](Cc1ccc(F)cc1)C(=O)O; X1 = O=C(/C=C/c1ccccc1)*

Tests used:
[1] = target: T1, Proteinase-activated receptor 4 (Homo sapiens) (UniProt Q96RI0); assay: Antagonist activity against PAR4 in washed human platelets assessed as inhibition of alpha-thrombin-induced platelet aggregation at 30 to 300 nM pre-incubated for 20 mins before alpha-thrombin addition and measured over 100 to 500 secs by optical aggregometry; format: functional
T1 sequence (whole entry): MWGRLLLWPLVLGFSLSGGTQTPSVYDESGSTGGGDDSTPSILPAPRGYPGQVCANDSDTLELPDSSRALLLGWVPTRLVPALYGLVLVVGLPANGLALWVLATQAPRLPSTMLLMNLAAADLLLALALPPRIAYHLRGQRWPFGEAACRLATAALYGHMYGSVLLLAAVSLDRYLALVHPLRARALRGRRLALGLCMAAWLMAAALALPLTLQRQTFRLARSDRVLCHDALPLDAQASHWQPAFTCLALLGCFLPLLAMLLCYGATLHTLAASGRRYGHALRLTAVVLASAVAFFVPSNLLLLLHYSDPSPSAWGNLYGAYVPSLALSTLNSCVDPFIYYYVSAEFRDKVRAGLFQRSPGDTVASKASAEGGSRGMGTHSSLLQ

[2] = target: T2, Proteinase-activated receptor 1 (Homo sapiens) (UniProt P25116); assay: Antagonist activity against PAR1 in washed human platelets assessed as inhibition of alpha-thrombin-induced platelet aggregation at 30 to 300 nM pre-incubated for 20 mins before alpha-thrombin addition and measured over 100 to 500 secs by optical aggregometry; format: functional
T2 sequence (whole entry): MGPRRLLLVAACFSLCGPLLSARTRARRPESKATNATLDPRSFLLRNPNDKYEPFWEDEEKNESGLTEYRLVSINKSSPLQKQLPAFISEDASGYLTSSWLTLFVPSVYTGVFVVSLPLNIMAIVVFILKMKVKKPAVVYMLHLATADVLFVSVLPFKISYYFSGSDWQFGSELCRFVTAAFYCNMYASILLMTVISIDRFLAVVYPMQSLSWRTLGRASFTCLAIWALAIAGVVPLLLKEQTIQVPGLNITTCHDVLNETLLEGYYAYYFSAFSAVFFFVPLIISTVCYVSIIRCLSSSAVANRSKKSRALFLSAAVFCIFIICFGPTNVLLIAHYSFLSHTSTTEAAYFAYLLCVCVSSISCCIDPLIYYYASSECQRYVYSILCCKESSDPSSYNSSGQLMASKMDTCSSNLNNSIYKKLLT

inhibition [1]	inhibition [2]	SMILES
Active		COc1cc(OCc2cccc(-c3ccc(C#N)nc3)c2)c2cc(-c3cn4nc(OC)sc4n3)oc2c1
	Active	CC(C)C[C@H](NC(=O)[C@H](Cc1ccc(NC(=N)N)cc1)NC(=O)[C@H](Cc1ccc(F)cc1)NC(=O)/C=C/c1ccccc1)C(=O)N[C@@H](CCCNC(=N)N)C(=O)N[C@@H](CCCNC(=N)N)C(=O)O (X1-[Phe(4-F)][Phe(4-guanidino)]LRR-OH)
